These results are taken from patent US20240174662A1, “SMALL MOLECULE INHIBITORS OF SALT INDUCIBLE KINASES” (Janssen Biotech, Inc., priority 2021, published 2024).

Chain of SIK2 (Q9H0K1 whole entry, species assumed): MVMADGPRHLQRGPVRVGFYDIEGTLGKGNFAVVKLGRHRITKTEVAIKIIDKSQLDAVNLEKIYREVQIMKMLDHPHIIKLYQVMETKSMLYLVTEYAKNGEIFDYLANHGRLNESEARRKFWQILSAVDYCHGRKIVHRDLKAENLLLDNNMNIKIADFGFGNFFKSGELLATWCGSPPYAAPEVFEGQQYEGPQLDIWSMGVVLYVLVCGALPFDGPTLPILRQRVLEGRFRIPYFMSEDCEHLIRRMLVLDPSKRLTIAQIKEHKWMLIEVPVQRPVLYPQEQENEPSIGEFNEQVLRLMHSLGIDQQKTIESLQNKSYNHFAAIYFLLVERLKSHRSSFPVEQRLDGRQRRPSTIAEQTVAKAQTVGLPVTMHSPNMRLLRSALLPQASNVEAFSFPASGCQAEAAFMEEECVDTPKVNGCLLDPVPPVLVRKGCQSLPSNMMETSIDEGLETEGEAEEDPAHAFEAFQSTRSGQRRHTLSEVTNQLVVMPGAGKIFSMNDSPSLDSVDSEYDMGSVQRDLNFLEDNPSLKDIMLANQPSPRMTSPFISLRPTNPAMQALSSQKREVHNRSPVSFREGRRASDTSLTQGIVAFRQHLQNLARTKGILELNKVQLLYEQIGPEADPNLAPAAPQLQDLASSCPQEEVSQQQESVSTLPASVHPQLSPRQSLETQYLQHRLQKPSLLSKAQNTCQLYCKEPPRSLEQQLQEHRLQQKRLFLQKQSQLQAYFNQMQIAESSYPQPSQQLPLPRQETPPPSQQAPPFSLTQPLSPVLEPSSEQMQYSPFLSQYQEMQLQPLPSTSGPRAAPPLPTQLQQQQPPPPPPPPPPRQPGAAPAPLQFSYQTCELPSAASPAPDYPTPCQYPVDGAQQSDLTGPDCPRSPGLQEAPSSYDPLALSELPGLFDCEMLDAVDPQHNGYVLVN

This assay concerns the target SIK2 (Homo sapiens (Human), UniProt Q9H0K1). Put plainly: SIK2 Enzymatic Assay Version 2 (High ATP). To be noted: 3 mM ATP and 200 μM HDAC5tide final, ADP-Glo Max luminescence. The assay is classed as biochemical. Put shortly: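 Luminescent ADP-Glo Max read-out: depletion reagent 2 h, then detection reagent 1 h. Before the reaction, compounds were incubated 30 min with enzyme added at 6 nM (twice final concentration), with all steps at room temperature.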
The IC50 is the midpoint of a concentration-inhibition curve. Lower therefore signals greater potency in that assay. For the compound `CN1CC[C@@H]1COc1cnn(C)c1-c1ccn2nc(Nc3ccc(C(=O)NCCC#N)cn3)cc2c1` [Example 135, N-(2-cyanoethyl)-6-[[5-[2-methyl-4-[[(2R)-1-methylazetidin-2-yl]methoxy]pyrazol-3-yl]pyrazolo[1,5-a]pyridin-2-yl]amino]pyridine-3-carboxamide], 5.8 nM corresponded to half-maximal inhibition (IC50).
Then `CCN1CC[C@@H]1COc1cnn(C)c1-c1ccn2nc(Nc3ncc(C)c(C)n3)cc2c1` [Example 165, N-(4,5-dimethylpyrimidin-2-yl)-5-[4-[[(2R)-1-ethylazetidin-2-yl]methoxy]-2-methyl-pyrazol-3-yl]pyrazolo[1,5-a]pyridin-2-amine], with 26.2 nM.
The compound `Cc1cc(C(=O)NCC(C)(C)O)cc(Nc2cc3cc(-c4c(OC[C@H]5CCN5C)cnn4C)ccn3n2)n1` [Example 111, N-(2-hydroxy-2-methyl-propyl)-2-methyl-6-[[5-[2-methyl-4-[[(2R)-1-methylazetidin-2-yl]methoxy]pyrazol-3-yl]pyrazolo[1,5-a]pyridin-2-yl]amino]pyridine-4-carboxamide] gave an IC50 of 1.3 nM.
To `Cn1ncc(OC[C@H]2CNC[C@@H]2O)c1-c1ccn2nc(NC(=O)C3CC3)cc2c1` [Example 345, N-[5-[4-[[(3R,4R)-4-hydroxypyrrolidin-3-yl]methoxy]-2-methyl-pyrazol-3-yl]pyrazolo[1,5-a]pyridin-2-yl]cyclopropanecarboxamide] belongs 58.2 nM.
As for `CN1CCO[C@@H](COc2cnn(C)c2-c2ccn3nc(NC(=O)C4CC4)cc3c2)C1` [Example 333, N-[5-[2-methyl-4-[[(2R)-4-methylmorpholin-2-yl]methoxy]pyrazol-3-yl]pyrazolo[1,5-a]pyridin-2-yl]cyclopropanecarboxamide], the IC50 was 54 nM.
Take `CCN1CC[C@@H]1COc1cnn(C(F)F)c1-c1ccn2nc(Nc3cncc(C)n3)cc2c1` [Example 482, 5-[2-(difluoromethyl)-4-[[(2R)-1-ethylazetidin-2-yl]methoxy]pyrazol-3-yl]-N-(6-methylpyrazin-2-yl)pyrazolo[1,5-a]pyridin-2-amine]: the IC50 was found to be 1.8 nM. This IC50 lies about 30-fold lower than the previous one.
Then `CN1CC[C@H](Oc2cnn(C)c2-c2ccn3nc(Nc4ccc(C5CC5)nn4)cc3c2)C1` [Example 462, N-(6-cyclopropylpyridazin-3-yl)-5-[2-methyl-4-[(3S)-1-methylpyrrolidin-3-yl]oxy-pyrazol-3-yl]pyrazolo[1,5-a]pyridin-2-amine], with 86.5 nM.
Then `[2H]C([2H])([2H])N1CC[C@@H]1COc1cnn(C)c1-c1ccn2nc(Nc3cc(C)nc(C)n3)cc2c1` [Example 290, N-(2,6-dimethylpyrimidin-4-yl)-5-[2-methyl-4-[[(2R)-1-(trideuteriomethyl)azetidin-2-yl]methoxy]pyrazol-3-yl]pyrazolo[1,5-a]pyridin-2-amine], with under 0.847 nM; and `CCN1CC[C@@H]1COc1cnn(C)c1-c1ccn2nc(Nc3cnc(C)cn3)cc2c1` [Example 21, (R)-5-(4-((1-Ethylazetidin-2-yl)methoxy)-1-methyl-1H-pyrazol-5-yl)-N-(5-methylpyrazin-2-yl)pyrazolo[1,5-a]pyridin-2-amine], with 0.9 nM; and `Cn1ncc(OC[C@H]2CCN2CC(F)(F)F)c1-c1ccn2nc(NC(=O)C3CC3)cc2c1` [Example 315, N-[5-[2-methyl-4-[[(2R)-1-(2,2,2-trifluoroethyl)azetidin-2-yl]methoxy]pyrazol-3-yl]pyrazolo[1,5-a]pyridin-2-yl]cyclopropanecarboxamide], with 14.1 nM.
Then `Cc1cc(Nc2cc3cc(-c4c(O[C@H]5CCN(C)C5)cnn4C)ccn3n2)ncn1` [Example 265, 5-[2-methyl-4-[(3S)-1-methylpyrrolidin-3-yl]oxy-pyrazol-3-yl]-N-(6-methylpyrimidin-4-yl)pyrazolo[1,5-a]pyridin-2-amine], with 30.5 nM.
`CNC(=O)c1ccc(Nc2cc3cc(-c4c(OC[C@H]5CCN5C)cnn4C)ccn3n2)nc1` [Example 126, N-methyl-6-[[5-[2-methyl-4-[[(2R)-1-methylazetidin-2-yl]methoxy]pyrazol-3-yl]pyrazolo[1,5-a]pyridin-2-yl]amino]pyridine-3-carboxamide]: the IC50 amounted to 4.1 nM.
Then `CN1CC(F)(F)C1COc1cnn(C)c1-c1ccn2nc(NC(=O)C3CC3)cc2c1` (racemic) [Example 60, rac-N-[5-[4-[(3,3-difluoro-1-methyl-azetidin-2-yl)methoxy]-2-methyl-pyrazol-3-yl]pyrazolo[1,5-a]pyridin-2-yl]cyclopropanecarboxamide], with 230 nM; and `CCN1CC[C@@H]1COc1cnn(C(F)F)c1-c1ccn2nc(Nc3cnc(C)cn3)cc2c1` [Example 264, 5-[2-(difluoromethyl)-4-[[(2R)-1-ethylazetidin-2-yl]methoxy]pyrazol-3-yl]-N-(5-methylpyrazin-2-yl)pyrazolo[1,5-a]pyridin-2-amine], with 7.7 nM.
To `Cn1ncc(OC[C@H]2CCN2CCOC(F)(F)F)c1-c1ccn2nc(NC(=O)C3CC3)cc2c1` [Example 431, N-[5-[2-methyl-4-[[(2R)-1-[2-(trifluoromethoxy)ethyl]azetidin-2-yl]methoxy]pyrazol-3-yl]pyrazolo[1,5-a]pyridin-2-yl]cyclopropanecarboxamide] belongs 181 nM.
For `Cn1ncc(OC[C@@H](O)c2ccccc2)c1-c1ccn2nc(NC(=O)C3CC3)cc2c1` [Example 27, N-[5-[4-[(2S)-2-hydroxy-2-phenyl-ethoxy]-2-methyl-pyrazol-3-yl]pyrazolo[1,5-a]pyridin-2-yl]cyclopropanecarboxamide], the IC50 was 11.8 nM.
To `CN1CCC[C@H]1COc1cnn(C)c1-c1ccn2nc(NC(=O)C3CC3)cc2c1` [Example 419, N-[5-[2-methyl-4-[[(2S)-1-methylpyrrolidin-2-yl]methoxy]pyrazol-3-yl]pyrazolo[1,5-a]pyridin-2-yl]cyclopropanecarboxamide] belongs 136 nM.
To `CO[C@@H]1CNC[C@@H]1Oc1cnn(C)c1-c1ccn2nc(NC(=O)C3CC3)cc2c1` (stereo in doubt) [Example 232, (rac-cis)-N-[5-[4-(4-methoxypyrrolidin-3-yl)oxy-2-methyl-pyrazol-3-yl]pyrazolo[1,5-a]pyridin-2-yl]cyclopropanecarboxamide] belongs 33.2 nM.
To `C[C@H]1CN[C@@H]1COc1cnn(C)c1-c1ccn2nc(NC(=O)C3CC3)cc2c1` [Example 341, N-[5-[2-methyl-4-[[(2S,3S)-3-methylazetidin-2-yl]methoxy]pyrazol-3-yl]pyrazolo[1,5-a]pyridin-2-yl]cyclopropanecarboxamide] belongs 57.7 nM; to `Cc1onc(OC[C@H](c2ccccc2F)N(C)C)c1-c1ccn2nc(NC(=O)C3CC3)cc2c1` [Example 324, N-[5-[3-[(2S)-2-(dimethylamino)-2-(2-fluorophenyl)ethoxy]-5-methyl-isoxazol-4-yl]pyrazolo[1,5-a]pyridin-2-yl]cyclopropanecarboxamide], 23.8 nM.
In turn, `Cc1cc(Nc2cn3cc(-c4c(OC[C@H]5CCN5C)cnn4C)ccc3n2)nc(C)n1` [Example 485, N-(2,6-dimethylpyrimidin-4-yl)-6-[2-methyl-4-[[(2R)-1-methylazetidin-2-yl]methoxy]pyrazol-3-yl]imidazo[1,2-a]pyridin-2-amine] displayed an IC50 of 1.1 nM.
To `Cc1cn2nc(Nc3cc4cc(-c5c(OC[C@H]6CCN6C)cnn5C)ccn4n3)ccc2n1` [Example 148, 2-methyl-N-[5-[2-methyl-4-[[(2R)-1-methylazetidin-2-yl]methoxy]pyrazol-3-yl]pyrazolo[1,5-a]pyridin-2-yl]imidazo[1,2-b]pyridazin-6-amine] belongs under 0.847 nM; to `Cn1ncc(OC[C@H](O)c2ccccc2)c1-c1ccn2nc(NC(=O)C3CC3)cc2c1` [Example 403, N-[5-[4-[(2R)-2-hydroxy-2-phenyl-ethoxy]-2-methyl-pyrazol-3-yl]pyrazolo[1,5-a]pyridin-2-yl]cyclopropanecarboxamide], 99.7 nM.
Then `CN1CCCC[C@H]1COc1cnn(C)c1-c1ccn2nc(NC(=O)C3CC3)cc2c1` [Example 505], with 1380 nM.
Turning to `CN1CC[C@@H]1COc1cnn(C)c1-c1ccn2nc(Nc3cnn(C)c3)cc2c1` [Example 142, 5-[2-methyl-4-[[(2R)-1-methylazetidin-2-yl]methoxy]pyrazol-3-yl]-N-(1-methylpyrazol-4-yl)pyrazolo[1,5-a]pyridin-2-amine], it took 2.8 nM to reach half-maximal inhibition (IC50).
Then `Cc1cc(Nc2cc3cc(-c4c(OC[C@H]5CCN5C)cnn4C)ccn3n2)nc(CC2CC2)n1` [Example 153, N-[2-(cyclopropylmethyl)-6-methyl-pyrimidin-4-yl]-5-[2-methyl-4-[[(2R)-1-methylazetidin-2-yl]methoxy]pyrazol-3-yl]pyrazolo[1,5-a]pyridin-2-amine], with under 0.847 nM.
Then `CO[C@H]1CNC[C@H]1Oc1cnn(C(F)F)c1-c1ccn2nc(Nc3cc(C)nc(C)n3)cc2c1` [Example 96, 5-[2-(difluoromethyl)-4-[(3R,4S)-4-methoxypyrrolidin-3-yl]oxy-pyrazol-3-yl]-N-(2,6-dimethylpyrimidin-4-yl)pyrazolo[1,5-a]pyridin-2-amine], with 6.8 nM; and `CN1CC[C@@H]1COc1cnn(C)c1-c1ccn2nc(Nc3ccc(C4CC4)nn3)cc2c1` [Example 50, N-(6-cyclopropylpyridazin-3-yl)-5-[2-methyl-4-[[(2R)-1-methylazetidin-2-yl]methoxy]pyrazol-3-yl]pyrazolo[1,5-a]pyridin-2-amine], with 2.6 nM.
Then `Cn1ncc(OC[C@H]2CCN2CC(C)(C)O)c1-c1ccn2nc(NC(=O)C3CC3)cc2c1` [Example 245, N-[5-[4-[[(2R)-1-(2-hydroxy-2-methyl-propyl)azetidin-2-yl]methoxy]-2-methyl-pyrazol-3-yl]pyrazolo[1,5-a]pyridin-2-yl]cyclopropanecarboxamide], with 13.7 nM; and `Cn1ncc(COC2CNCC2(F)F)c1-c1ccn2nc(NC(=O)C3CC3)cc2c1` (racemic) [Example 184, (RS)—N-[5-[4-[(4,4-difluoropyrrolidin-3-yl)oxymethyl]-2-methyl-pyrazol-3-yl]pyrazolo[1,5-a]pyridin-2-yl]cyclopropanecarboxamide], with 14.5 nM.
